Test results: patent US10709653B2, “Cosmetic compositions comprising spiculisporic acid and at least one sulfate and/or sulfonate surfactant” (L'OREAL, priority 2013, dated 2020)
Where two headings read alike, the source gives them in different places.

Key:
[1] = cited from earlier work
[2] = Aspect and pH on storage of spiculisporic acid solutions pre-solubilized with KOH, alone or with surfactants (Example 2); assay type: physicochemical
Source text: Solutions containing the S-acid at 4% or 8% (neutralized with an amount of KOH calculated so as to obtain the di-potassium salt of S-acid, i.e. R1=2) and surfactants, were made.

[3] = Aspect and pH on storage of S-acid solutions salified with KOH, Arg or TEA with sulfate or sulfonate surfactant (Example 3); assay type: physicochemical; parameters: key to Aspect (macroscopic observation) 15 days 4° C. / Aspect (macroscopic observation) 15 days RT: *: showed a precipitate; details: S-acid 4.00% MA
Method: The compositions of Table 3 above were prepared according to the following operating procedure:
Phase A was heated to 40° C. After solubilization of the S-acid, the phase B was added to the Phase A. Next, the phase C was added after phase B.
A portion of the solution was stored at room temperature and the other one at 4° C.

[4] = S-acid 4% MA, KOH (R=2), named surfactant 4% if any
[5] = sulfate surfactant 4.00% MA, base Arg, R 1.10
[6] = sulfate surfactant 4.00% MA, base Arg, R 1.25
[7] = sulfate surfactant 4.00% MA, base Arg, R 1.75
[8] = sulfate surfactant 4.00% MA, base Arg, R 2.00
[9] = sulfate surfactant 4.00% MA, base KOH, R 2.00
[10] = sulfate surfactant 4.00% MA, base TEA, R 1.10
[11] = sulfate surfactant 4.00% MA, base TEA, R 1.25
[12] = sulfate surfactant 4.00% MA, base TEA, R 1.75
[13] = sulfate surfactant 4.00% MA, base TEA, R 2.00
[14] = sulfonate surfactant 4.00% MA, base Arg, R 1.10
[15] = sulfonate surfactant 4.00% MA, base Arg, R 1.25
[16] = sulfonate surfactant 4.00% MA, base Arg, R 1.75
[17] = sulfonate surfactant 4.00% MA, base Arg, R 2.00
[18] = sulfonate surfactant 4.00% MA, base KOH, R 2.00
[19] = sulfonate surfactant 4.00% MA, base TEA, R 1.10
[20] = sulfonate surfactant 4.00% MA, base TEA, R 1.25
[21] = sulfonate surfactant 4.00% MA, base TEA, R 1.75
[22] = sulfonate surfactant 4.00% MA, base TEA, R 2.00

## CCCCCCCCCCC(C(=O)O)C1(C(=O)O)CCC(=O)O1 (stereo not drawn) [S-acid, 4,5-dicarboxy-4-pentadecanolide]
[1]; high temperature
  Solubility in water: partly soluble
[1]; room temperature
  Solubility in ethanol: soluble
  Solubility in fats: insoluble
  Solubility in water: insoluble
[2]; S-acid 4% MA, KOH (R=2), named surfactant 4% active material if any
  pH t0 RT: 5.97
[2]; [4]
  pH 20 days after storage T = 4° C.: 6.01
  pH 20 days after storage RT: 6.02
[2]; S-acid 4%, KOH (R=2), surfactant 4% if any
  Aspect after 20 days of storage at 4° C.: precipitation
[2]; S-acid 8% MA, KOH (R=2)
  pH 20 days after storage T = 4° C.: 6.47
  pH 20 days after storage RT: 6.47
[2]; S-acid 8% MA, neutralized with KOH (R=2)
  pH t0 RT: 6.43
[2]; S-acid 8%, KOH (R=2)
  Aspect after 20 days of storage at 4° C.: precipitation
[3]; [5]
  pH 15 days 4° C.: 5.19
  pH 15 days RT: 5.11
[3]; [6]
  pH 15 days 4° C.: 5.33
  pH 15 days RT: 5.34
[3]; [7]
  pH 15 days 4° C.: 5.93
  pH 15 days RT: 5.95
[3]; [8]
  pH 15 days 4° C.: 6.25
  pH 15 days RT: 6.21
[3]; [9]
  Aspect (macroscopic observation) 15 days 4° C.: *
  Aspect (macroscopic observation) 15 days RT: *
  pH 15 days 4° C.: 6.24
  pH 15 days RT: 6.33
[3]; [10]
  pH 15 days 4° C.: 5.26
  pH 15 days RT: 5.19
[3]; [11]
  pH 15 days 4° C.: 5.38
  pH 15 days RT: 5.39
[3]; [12]
  pH 15 days 4° C.: 6.02
  pH 15 days RT: 5.98
[3]; [13]
  pH 15 days 4° C.: 6.32
  pH 15 days RT: 6.32
[3]; [14]
  pH 15 days 4° C.: 5.07
  pH 15 days RT: 5.00
[3]; [15]
  pH 15 days 4° C.: 5.28
  pH 15 days RT: 5.27
[3]; [16]
  pH 15 days 4° C.: 5.89
  pH 15 days RT: 5.93
[3]; [17]
  pH 15 days 4° C.: 6.19
  pH 15 days RT: 6.18
[3]; [18]
  Aspect (macroscopic observation) 15 days 4° C.: *
  pH 15 days 4° C.: 6.34
  pH 15 days RT: 6.43
[3]; [19]
  pH 15 days 4° C.: 5.22
  pH 15 days RT: 5.17
[3]; [20]
  pH 15 days 4° C.: 5.37
  pH 15 days RT: 5.33
[3]; [21]
  pH 15 days 4° C.: 5.96
  pH 15 days RT: 5.97
[3]; [22]
  pH 15 days 4° C.: 6.34
  pH 15 days RT: 6.33
